Data published in PubChem BioAssay (NCI).
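Test compounds were applied to cells in 96-well plates for 48 hours at 5 doses. At the GI50, growth is halved. Definition used: TGI = concentration required for complete inhibition of growth.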

What was measured:
Assay in all cases: NCI-60 cell line screen, 48 h
A498 renal = test system: A498 renal
ACHN renal = test system: ACHN renal
EKVX NSCLC = test system: EKVX NSCLC
K-562 leukemia = test system: K-562 leukemia
MDA-MB-231 breast = test system: MDA-MB-231 breast
MOLT-4 leukemia = test system: MOLT-4 leukemia
OVCAR-5 ovarian = test system: OVCAR-5 ovarian
RPMI-8226 leukemia = test system: RPMI-8226 leukemia
HT29 colon = test system: HT29 colon
TK-10 renal = test system: TK-10 renal

| SMILES | GI50 (A498 renal) | TGI (A498 renal) | GI50 (ACHN renal) | TGI (ACHN renal) | GI50 (EKVX NSCLC) | TGI (EKVX NSCLC) | GI50 (K-562 leukemia) | TGI (K-562 leukemia) | GI50 (MDA-MB-231 breast) | TGI (MDA-MB-231 breast) | GI50 (MOLT-4 leukemia) | TGI (MOLT-4 leukemia) | GI50 (OVCAR-5 ovarian) | TGI (OVCAR-5 ovarian) | GI50 (RPMI-8226 leukemia) | TGI (RPMI-8226 leukemia) | GI50 (HT29 colon) | TGI (HT29 colon) | GI50 (TK-10 renal) | TGI (TK-10 renal) |
| --- | --- | --- | --- | --- | --- | --- | --- | --- | --- | --- | --- | --- | --- | --- | --- | --- | --- | --- | --- | --- |
| COc1ccc([C@H]2c3cc(OC)c(OC)cc3C=C(C=O)C2CO)cc1OC (some centres undefined) | 19 µM | > 100 µM | 7.53 µM | > 100 µM | 5.29 µM | > 100 µM | 6.03 µM | > 100 µM | 6.74 µM | > 100 µM | > 100 µM | > 100 µM | 43 µM | > 100 µM | 9.22 µM | > 100 µM | – | – | – | – |
| COc1ccc(C(=O)CC2(O)C(=O)Nc3c(Cl)ccc(Cl)c32)cc1 (centres undefined) | 0.599 µM | 7.02 µM | 12.6 µM | > 100 µM | – | – | 0.403 µM | > 100 µM | 4.27 µM | > 92.4 µM | 3.18 µM | > 78.5 µM | 5.23 µM | > 100 µM | 2.64 µM | 15.5 µM | 0.491 µM | > 57.9 µM | 8.98 µM | > 100 µM |
| CC(=O)Oc1c(-c2ccccc2)[nH]c2cc([N+](=O)[O-])c(/C(Cl)=C/c3ccccc3)cc12 | – | 23.6 µM | – | 46.6 µM | – | 59.3 µM | – | > 100 µM | – | – | – | 13.8 µM | – | 17.7 µM | – | > 100 µM | – | 11.1 µM | – | 64.4 µM |
| CC(=O)O[C@@H]1C=CC(=O)C2(CC(=O)O[C@@H]2/C=C(\C)CCC=C(C)C)C1 (some centres undefined) | 1.73 µM | 3.81 µM | 1.16 µM | 2.43 µM | 3.28 µM | 7.87 µM | 0.449 µM | – | 0.405 µM | 1.33 µM | 0.126 µM | 1.03 µM | 0.267 µM | 1.08 µM | – | – | 0.529 µM | 73.9 µM | 1.67 µM | 3.71 µM |
| CN(C)C1(C#N)CCC2(CC1)OCCO2 | – | > 100 µM | – | > 100 µM | – | > 100 µM | – | > 100 µM | – | – | – | > 100 µM | – | > 100 µM | – | > 100 µM | – | > 100 µM | – | > 100 µM |
| CC(C)NC(=O)OCc1nnn2c1C(OC(=O)NC(C)C)CC2 (centres undefined) | – | – | – | – | – | > 100 µM | – | > 100 µM | – | – | – | > 100 µM | – | > 100 µM | – | > 100 µM | – | > 100 µM | – | > 100 µM |
| FC(F)(F)c1ccc2nc(-c3nc(-c4ccccc4)n4ccccc34)[nH]c2c1 | 1.69 µM | 5.85 µM | 2.23 µM | 6.12 µM | – | – | 11 µM | > 100 µM | 2.04 µM | 5.39 µM | 28.3 µM | > 100 µM | 6.77 µM | 47.2 µM | 3.84 µM | 36.9 µM | 3.47 µM | 11.1 µM | 2.85 µM | 5.32 µM |
| CC(C)(O)Cn1c(=O)c(Oc2ccc(F)cc2F)cc2cnc(NC3CCOCC3)nc21 | > 14.7 µM | > 25 µM | > 25 µM | > 25 µM | – | – | > 25 µM | > 25 µM | > 25 µM | > 25 µM | > 25 µM | > 25 µM | > 25 µM | > 25 µM | > 25 µM | > 25 µM | > 25 µM | > 25 µM | > 25 µM | > 25 µM |
| COC(=O)C1=C(O)C(O)=C(C(=O)OC)CC1 | – | > 100 µM | – | > 100 µM | – | > 100 µM | – | > 100 µM | – | – | – | > 100 µM | – | > 100 µM | – | > 100 µM | – | > 100 µM | – | > 100 µM |
| C=C1C(=O)OC2C1C(OC(=O)/C(=C/C)COC(C)=O)CC1(CO1)C1C(OC(=O)/C(=C/C)CO)C=C(C)C21 (centres undefined) | – | 8.94 µM | – | 4.4 µM | – | 4.16 µM | – | 10 µM | – | – | – | 2.24 µM | – | 25.9 µM | – | 6.56 µM | – | 7.48 µM | – | 6.05 µM |
| CN1CCC(O)C(CNC23CC4CC(CC(C4)C2)C3)C1 (centres undefined) | – | > 100 µM | – | > 100 µM | – | > 100 µM | – | > 100 µM | – | – | – | > 100 µM | – | > 100 µM | – | – | – | > 100 µM | – | > 100 µM |
| CC(=O)OC1COC(N2C(=O)C(=O)c3c(C)cc(Cl)nc32)C(OC(C)=O)C1OC(C)=O (centres undefined) | – | > 100 µM | – | > 100 µM | – | > 100 µM | – | > 100 µM | – | – | – | > 100 µM | – | > 100 µM | – | > 100 µM | – | > 100 µM | – | > 100 µM |
| CC(C)Oc1cc(OCC(=O)O)cc(C(=O)N(CCC(N)=O)C(=O)Nc2ccc(C(=O)O)cc2OC(C)C)c1 | > 100 µM | > 100 µM | > 100 µM | > 100 µM | – | – | > 100 µM | > 100 µM | > 100 µM | > 100 µM | > 100 µM | > 100 µM | > 100 µM | > 100 µM | > 100 µM | > 100 µM | > 100 µM | > 100 µM | > 100 µM | > 100 µM |
| O=C(c1ccccc1)c1nnn(Cc2cccc(Cl)c2)c1C(=O)c1ccccc1 | – | – | – | > 100 µM | – | > 100 µM | – | > 100 µM | – | – | – | > 100 µM | – | > 100 µM | – | > 100 µM | – | > 100 µM | – | > 100 µM |
| C1=C[C@@H]2c3ccc4cnccc4c3NC[C@@H]2C1 | – | > 100 µM | – | > 100 µM | – | > 100 µM | – | > 100 µM | – | – | – | > 100 µM | – | > 100 µM | – | > 100 µM | – | – | – | > 100 µM |
| CCCCN(CCCC)C(=Nc1ccccc1)N(CCCC)CCCC | – | 37.8 µM | – | 82 µM | – | 17.5 µM | – | 10.4 µM | – | – | – | 13.1 µM | – | 27.8 µM | – | 4.42 µM | – | > 100 µM | – | 34.4 µM |
| N#Cc1c([N+](=O)[O-])cc(C(F)(F)F)cc1[N+](=O)[O-] | – | 32.9 µM | – | 20 µM | – | 32.9 µM | – | 5.08 µM | – | – | – | 4.95 µM | – | 32.5 µM | – | 6.28 µM | – | 9.36 µM | – | 18.1 µM |
